Where “and” joins values, the source holds several entries; their conditions need not be identical. Identical values can stand only once. Marks after values point to notes of the source that are not given here.
Tests used:
[1] = system: T lymphocyte blast cells (CD3-Blasts); assay: CD3-Blast Chemotaxis Assay (transendothelial migration to MCP-1); type: cell-based, human; settings: 10 μM compound; MCP-1 about 10 nM; ECV304 endothelial coated Transwells
Source text: Recombinant human MCP-1 was obtained from Peprotech (Rockey Hill, N.J.). T lymphocyte blast cells (CD3-Blasts) were generated by standard protocols (Coligan, J. E., A. M. Kruisbeek, D. H. Macgulies, E. M. Shevach, and W. Strober, editors. 1992. Current Protocols in Immunology. John Wiley and Sons, New York 7.1.2, 7.10.1-7.10. 10). Briefly, human peripheral blood mononuclear cells (PBMC) were isolated from heparinized venous blood by Percoll density gradient centrifugation (d=1.088) at room temperature. RBCs were removed by hypotonic lysis or dextran sedimentation. Blast cells were generated by incubating 2×10^6 PBMC in 24-well tissue culture plates that were coated with 2.5 μg of an anti-CD3 monoclonal antibody (identified as TR66, a gift from Dr. A. Lanzivecchia; similar monoclonal antibody is HIT3a, from Parmingen #30111A) at 37° C. for 48 to 72 hours, and then transferring 12 wells to T25 or T75 flasks with RPMI (Roswell Park Memorial Institute 1640, a growth cell medium available from Gibco/RBL, Inc., New York)+10% FCS (fetal calf serum)+50 units/ml IL-2. The cells are expanded and cultured for up to 3 weeks. CD3-Blast chemotaxis was assessed no sooner than 3 to 4 days after transfer to the IL-2 containing medium using a modification of a transendothelial migration assay (Carr. M. W., S. J. Roth, B. Luther, S. S. Rose, and T. A. Springer. 1994. Monocyte chemoattractant protein 1 acts as a T-lymphocyte chemoattractant. Proc. Natl. Acad. Sci. USA 91:3652-6). The endothelial cells used for this assay were the endothelial cell line ECV304. (ECV304 was from the European Collection of Animal Cell Cultures, Porton Downs, UK, assession #92091712). Endothelial cells were cultured on 6.5 mm diameter Transwell culture inserts (Costar) with a […] pore size. […] Background migration was determined by counting cells that migrated in the absence of MCP-1 in the lower chamber. […] The percent inhibition by compounds of directed migration was determined by the following formula: [drawing 32] […]

[2] = system: T cell recruitment at sites of DHR; assay: Inhibition of T cell recruitment to rat skin inflammatory (DHR) sites; type: in vivo
Experimental: Inbred, approximately 200 g, male Lewis rats were used in all experiments. Cutaneous delayed hypersensitivity (DHR) was induced as previously described (1). Briefly, rats were sensitized to KLH (Sigma Chemical Co., St. Louis, Mo.) by administering 50 μg KLH in 0.1 mL complete Freund's adjuvant (CFA; Sigma Chemical Co.) into each of 4 subcutaneous sites. After 14 days, DHR was elicited by the challenge of 5 μg KLH in PBS into multiple intradermal sites on the back. Analysis was performed 24 hours after antigen challenge. For each experiment, there were at least three groups of animals of at least four animals in each group. […]
T cell recruitment at sites of DHR was quantified using methods previously described (1-4). […] The cells in the effluent were highly purified (>95%) rat T cells as assessed by anti-rat CD3 (monoclonal antibody KT3, Biosource International, Camarillo, Calif.) immunoreactivity by flow cytometry. […] Skin challenge sites (8 mm in diameter) were counted on a γ counter 24 hours after injection of radiolabeled T cells. Lung, liver, and spleen were also collected and counted as comparative indices for evaluation of input.
Statistical significance was determined using a paired Student's t-test. […]

Row | SMILES | % Inhibition of Chemotaxis at 10 μM [1] | inhibition of T cell recruitment in rat DHR ([2]; 30 and 23 mg/kg per os at the time of antigen challenge, 24 hour period (FIG. 2)) | recruitment of 111In-labeled rat T cells to skin DHR sites ([2]; administered once per os at the time of antigen challenge (FIG. 2)) | melting point [°C]
1 | CCN(CC)CCN(CCN(CC)CC)c1ccc(-c2nc3cc(Cl)c(Cl)cc3[nH]2)cc1 [Example 1, N-[4-(5,6-dichloro-1H-benzimidazol-2-yl)-phenyl]-N-(2-diethylamino-ethyl)-N, N-diethyl-ethane-1,2-diamine] | 62-142* % | statistically significant inhibitory effect | inhibited the recruitment of ^111In-labeled rat T cells to skin DHR sites in a dose-dependent fashion | –
2 | CN(CCN1CCCCC1)c1ccc(-c2nc3cc(Cl)c(Cl)cc3[nH]2)cc1 [Example 2, N-[4-(5 ,6-dichloro-1H-benzimidazol-2-yl)-phenyl]-N-methyl-N-(2-piperidin-1-yl-ethyl)-amine] | 100% and 102% | – | – | 165 to 167
